Source: US11344510B2, “Arylcyclohexylamine derivatives and their use in the treatment of psychiatric disorders” (Gilgamesh Pharmaceuticals, Inc., priority 2019, dated 2022)

Assays:
[1] = biological target: MK-801 binding site of the N-methyl-D-aspartate receptor (NMDAR); test: NMDAR radioligand binding with [3H]MK-801, Method B; set-up: species or system Sprague Dawley rat; details: MK-801 site, Method B, male Sprague Dawley rat cortex, 5.0 nM [3H]MK-801; read-out: NMDAR Ki ± SEM
Experimental: Radioligand Binding—Method B. Affinity of the test compounds for NMDAR was determined in radioligand binding experiments with [^3H]MK-801 by WuXi AppTec (Hong Kong) Limited, under the conditions described in Table 13.

[2] = biological target: T1, vesicular monoamine transporter 2 (VMAT2) (Homo sapiens, UniProt Q05940); test: Fluorescent substrate uptake inhibition, VMAT2; assay type: cell-based; details: for inhibition at 10 µM: transfected cells
T1 construct: expressed in transfected cells
Experimental: (§1) Uptake Inhibition. The ability of test compounds to block monoamine uptake by SERT, NET, DAT, and VMAT2 was determined using the Neurotransmitter Transporter Uptake Assay Kit manufactured by Molecular Devices (Cat #R8173). Briefly, stably transfected cells expressing the MAT of interest (HEK293 cells for SERT and NET; CHO cells for DAT) were grown and plated into 384-well plates at a concentration of 20,000 cells per well. Plates were then incubated for 16-20 h at 37° C. and 5% CO2. The medium was then aspirated and replaced with 25 μL of assay buffer (20 mM HEPES in HBSS, containing 0.1% BSA) containing the test compounds at the appropriate concentrations. Plates were then centrifuged at 300 rpm for 15 s and then incubated at 37° C. for 30 minutes. At this time, 25 μL of the proprietary fluorescent dye solution was added, the plates were incubated at 37° C. for 60 minutes, and then fluorescence was quantified on a plate reader (excitation wavelength=440 nm, emission wavelength=520 nm). The proprietary dye solution contains a mixture of 1) a fluorescent dye that mimics the endogenous substrates of MATs and is thereby actively transported to the intracellular compartment in the absence of an inhibitor and 2) a masking dye that inhibits the fluorescence of dye 1 in the extracellular compartment. Therefore, the overall fluorescence of the system increases as the fluorescent dye is transported into the cells.

[3] = biological target: T2, norepinephrine transporter (NET) (Homo sapiens, UniProt P23975); test: Fluorescent substrate uptake inhibition, NET; assay type: cell-based; details: for inhibition at 10 µM: HEK293 cells expressing NET
T2 construct: expressed in transfected cells; host or cells: HEK293
Experimental: as §1

[4] = MLM stability (Low Activity); assay type: in vitro ADME, CD-1 mice; details: male, CD-1, mouse, liver microsomes, pH 7.4, Condition 1 (Low Activity), 0.50 mg protein/mL
Experimental: (§2) MLM Stability (Low Activity). Pooled MLM from male CD-1 mice (XenoTech M1000) were used. Microsomal incubations were carried out in multi-well plates. Liver microsomal incubation medium consisted of PBS (100 mM, pH 7.4), MgCl2 (1 mM), and NADPH (1 mM), with 0.50 mg of liver microsomal protein per mL. Control incubations were performed by replacing the NADPH-cofactor system with PBS. Test compounds (1 μM, final solvent concentration 1.0%) were incubated with microsomes at 37° C. with constant shaking. Six time points over 60 minutes were analyzed, with 60 μL aliquots of the reaction mixture being drawn at each time point. The reaction aliquots were stopped by adding 180 μL of cold (4° C.) acetonitrile containing 200 ng/mL tolbutamide and 200 ng/mL labetalol as internal standards (IS), followed by shaking for 10 minutes, and then protein sedimentation by centrifugation at 4000 rpm for 20 minutes at 4° C. Supernatant samples (80 μL) were diluted with water (240 μL) and analyzed for parent compound remaining using a fit-for-purpose liquid chromatography-tandem mass spectrometry (LC-MS/MS) method.
(§3) Data Analysis. The elimination constant (kel), half-life (t1/2) and intrinsic clearance (Clint) were determined in a plot of […] versus time, using linear regression analysis.

[5] = biological target: T3, serotonin transporter (SERT) (Homo sapiens, UniProt P31645); test: Fluorescent substrate uptake inhibition, SERT; assay type: cell-based; details: for inhibition at 10 µM: HEK293 cells expressing SERT
T3 construct: expressed in transfected cells; host or cells: HEK293
Experimental: as §1

[6] = RLM stability (Low Activity); assay type: in vitro ADME, Sprague Dawley rats; details: male, Sprague Dawley, rat, liver microsomes, pH 7.4, Condition 1 (Low Activity), 0.50 mg protein/mL
Experimental: as §2, with “RLM” for “MLM”, “Sprague Dawley rats” for “CD-1 mice”, “R1000)” for “M1000)”
as §3

[7] = biological target: T4, dopamine transporter (DAT) (Homo sapiens, UniProt Q01959); test: Fluorescent substrate uptake inhibition, DAT; assay type: cell-based; details: for inhibition at 10 µM: CHO cells expressing DAT
T4 construct: expressed in transfected cells; host or cells: CHO (uptake)
Experimental: as §1

[8] = HLM stability (Low Activity, Alternative Method); assay type: in vitro ADME; details: both sexes, human, liver microsomes, pH 7.4, Condition 1 column, values marked *: Low Activity, 0.50 mg protein/mL
Experimental: as §2, with “HLM” for “MLM”, “Activity, Alternative Method).” for “Activity).”, “from adult” for “from”, “and female donors (Corning 452117)” for “CD-1 mice (XenoTech M1000)”
as §3

[9] = MLM stability (High Activity); assay type: in vitro ADME, BALB/c mice; details: male, BALB/c, mouse, liver microsomes, pH 7.4, Condition 2 (High Activity), 1.0 mg protein/mL
Experimental: MLM Stability (High Activity). Pooled MLM from male BALB/c mice (XenoTech M3000) were used. Microsomal incubations were carried out in 96-well plates in 5 aliquots of 40 μL each (one for each time point). Liver microsomal incubation medium consisted of PBS (100 mM, pH 7.4), MgCl2 (3.3 mM), NADPH (3 mM), glucose-6-phosphate (5.3 mM), and glucose-6-phosphate dehydrogenase (0.67 units/mL), with 1.0 mg of liver microsomal protein per mL. Control incubations were performed by replacing the NADPH-cofactor system with PBS. Test compounds (1 μM, final solvent concentration 1.6%) were incubated with microsomes at 37° C., shaking at 100 rpm. Incubations were performed in duplicate. Five time points over 60 minutes were analyzed. The reactions were stopped by adding 9 volumes of 90% acetonitrile-water to incubation aliquots, followed by protein sedimentation by centrifugation at 5500 rpm for 3 minutes. Supernatants were analyzed for parent compound remaining using a fit-for-purpose liquid chromatography-tandem mass spectrometry (LC-MS/MS) method, with authentic samples of each analyte used for identity confirmation.
as §3

[10] = HLM stability (High Activity); assay type: in vitro ADME; details: both sexes, human, liver microsomes, pH 7.4, Condition 2 (High Activity), 1.0 mg protein/mL
Experimental: HLM Stability (High Activity). Pooled HLM from adult male and female donors (XenoTech H0630) were used. Microsomal incubations were carried out in 96-well plates in 5 aliquots of 40 μL, each (one for each time point). Liver microsomal incubation medium consisted of PBS (100 mM, pH 7.4), MgCl2 (3.3 mM), NADPH (3 mM), glucose-6-phosphate (5.3 mM), and glucose-6-phosphate dehydrogenase (0.67 units/mL), with 1.0 mg of liver microsomal protein per mL. Control incubations were performed by replacing the NADPH-cofactor system with PBS. Test compounds (1 μM, final solvent concentration 1.6%) were incubated with microsomes at 37° C., shaking at 100 rpm. Incubations were performed in duplicate. Five time points over 60 minutes were analyzed. The reactions were stopped by adding 12 volumes of 90% acetonitrile-water to incubation aliquots, followed by protein sedimentation by centrifugation at 5500 rpm for 3 minutes. Supernatants were analyzed for parent compound remaining using a fit-for-purpose liquid chromatography-tandem mass spectrometry (LC-MS/MS) method, with authentic samples of each analyte used for identity confirmation.
as §3

T4 sequence (Q01959 whole entry, species assumed): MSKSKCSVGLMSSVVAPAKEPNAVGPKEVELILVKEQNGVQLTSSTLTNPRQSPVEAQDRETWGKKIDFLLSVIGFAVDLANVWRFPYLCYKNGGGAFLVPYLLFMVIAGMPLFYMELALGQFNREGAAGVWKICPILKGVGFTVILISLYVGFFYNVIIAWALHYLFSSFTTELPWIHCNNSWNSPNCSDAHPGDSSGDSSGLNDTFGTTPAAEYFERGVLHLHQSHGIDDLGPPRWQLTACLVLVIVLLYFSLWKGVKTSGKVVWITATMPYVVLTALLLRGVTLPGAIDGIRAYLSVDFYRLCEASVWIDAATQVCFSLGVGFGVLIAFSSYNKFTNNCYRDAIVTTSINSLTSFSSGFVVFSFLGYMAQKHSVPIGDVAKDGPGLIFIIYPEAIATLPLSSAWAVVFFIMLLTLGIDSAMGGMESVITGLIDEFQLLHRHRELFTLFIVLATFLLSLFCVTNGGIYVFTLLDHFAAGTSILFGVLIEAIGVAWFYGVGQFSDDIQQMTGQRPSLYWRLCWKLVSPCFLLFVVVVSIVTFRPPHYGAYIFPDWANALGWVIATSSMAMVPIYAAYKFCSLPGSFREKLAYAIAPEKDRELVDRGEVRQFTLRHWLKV
T1 sequence (Q05940 whole entry, species assumed): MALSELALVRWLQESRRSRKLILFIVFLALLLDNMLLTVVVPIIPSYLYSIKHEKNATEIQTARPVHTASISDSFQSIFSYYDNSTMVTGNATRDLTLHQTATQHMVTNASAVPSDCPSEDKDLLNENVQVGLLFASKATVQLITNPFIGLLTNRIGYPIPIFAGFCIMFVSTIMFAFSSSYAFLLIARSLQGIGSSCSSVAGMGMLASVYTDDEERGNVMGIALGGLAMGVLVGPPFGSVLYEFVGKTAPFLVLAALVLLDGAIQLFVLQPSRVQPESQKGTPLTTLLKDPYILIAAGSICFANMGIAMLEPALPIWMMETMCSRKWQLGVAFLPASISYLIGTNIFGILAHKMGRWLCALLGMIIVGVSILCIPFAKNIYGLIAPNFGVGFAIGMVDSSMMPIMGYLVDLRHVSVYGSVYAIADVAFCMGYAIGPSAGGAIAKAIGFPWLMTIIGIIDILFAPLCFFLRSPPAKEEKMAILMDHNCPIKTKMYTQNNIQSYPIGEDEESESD
T2 sequence (P23975 whole entry, species assumed): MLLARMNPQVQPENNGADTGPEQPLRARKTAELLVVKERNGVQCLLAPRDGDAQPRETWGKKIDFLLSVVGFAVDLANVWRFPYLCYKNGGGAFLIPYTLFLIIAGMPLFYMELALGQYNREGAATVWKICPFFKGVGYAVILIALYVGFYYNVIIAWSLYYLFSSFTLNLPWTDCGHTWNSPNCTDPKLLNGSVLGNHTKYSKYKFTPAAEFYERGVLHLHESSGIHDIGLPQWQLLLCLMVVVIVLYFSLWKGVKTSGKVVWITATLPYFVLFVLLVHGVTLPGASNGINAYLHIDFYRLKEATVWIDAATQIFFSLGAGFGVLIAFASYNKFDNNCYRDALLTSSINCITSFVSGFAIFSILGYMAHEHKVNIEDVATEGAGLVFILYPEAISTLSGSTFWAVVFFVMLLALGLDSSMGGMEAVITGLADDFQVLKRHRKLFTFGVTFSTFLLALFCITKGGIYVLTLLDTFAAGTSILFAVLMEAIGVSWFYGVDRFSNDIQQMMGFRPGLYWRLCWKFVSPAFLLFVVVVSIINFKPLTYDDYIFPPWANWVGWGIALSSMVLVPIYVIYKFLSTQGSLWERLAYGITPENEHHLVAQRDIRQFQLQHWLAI
T3 sequence (P31645 whole entry, species assumed): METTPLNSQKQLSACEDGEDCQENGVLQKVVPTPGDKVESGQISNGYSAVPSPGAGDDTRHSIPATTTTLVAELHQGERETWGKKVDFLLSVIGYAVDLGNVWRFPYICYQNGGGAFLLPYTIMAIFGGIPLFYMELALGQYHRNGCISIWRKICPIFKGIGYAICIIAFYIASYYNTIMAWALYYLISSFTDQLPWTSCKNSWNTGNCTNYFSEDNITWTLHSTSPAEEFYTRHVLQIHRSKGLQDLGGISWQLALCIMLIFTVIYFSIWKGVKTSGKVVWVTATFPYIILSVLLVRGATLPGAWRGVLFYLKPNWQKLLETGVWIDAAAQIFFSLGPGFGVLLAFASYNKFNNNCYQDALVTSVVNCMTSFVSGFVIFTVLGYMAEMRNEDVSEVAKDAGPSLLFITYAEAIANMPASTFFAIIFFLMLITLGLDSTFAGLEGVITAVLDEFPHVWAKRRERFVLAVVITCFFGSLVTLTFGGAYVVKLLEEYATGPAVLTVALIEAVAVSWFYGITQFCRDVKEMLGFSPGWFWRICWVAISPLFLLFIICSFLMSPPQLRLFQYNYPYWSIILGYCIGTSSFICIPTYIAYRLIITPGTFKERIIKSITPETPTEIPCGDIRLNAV

Structure (SMILES) | Ki [1] [µM] | inhibition at 10 µM [2] [%] | inhibition at 10 µM [3] [%] | half-life at 1 μM [4] [min] | microsomal CLint at 1 μM [4] [µL/min/mg] | inhibition at 10 µM [5] [%] | half-life at 1 μM [6] [min] | microsomal CLint at 1 μM [6] [µL/min/mg] | inhibition at 10 µM [7] [%] | half-life at 1 μM [8] [min] | microsomal CLint at 1 μM [8] [µL/min/mg] | IC50 [2] [µM] | IC50 [3] [µM] | IC50 [5] [µM] | IC50 [7] [µM] | half-life at 1 μM [9] [min] | microsomal CLint at 1 μM [9] [µL/min/mg] | half-life at 1 μM [10] [min] | microsomal CLint at 1 μM [10] [µL/min/mg]
CCN(CC)[C@]1(c2ccccc2)CCCCC1=O [Compound 25S, (S)-2-(diethylamino)-2-phenylcyclohexanone] | 5.2 | 1.7 | -0.13 | 8.6 | 161 | 45.6 | 14.5 | 95.4 | 24.9 | 42 | 33 |  |  |  |  |  |  |  | 
O=C1CCCC[C@@]1(c1ccccc1)N1CCCC1 [Compound 27S, (S)-2-phenyl-2-(pyrrolidin-1-yl)cyclohexan-1-one] | 1.1 |  |  | 41 | 33.8 |  | 53.7 | 25.8 |  | > 145 | < 9.6 | 19.3 | 8.5 | 0.041 | 10.9 |  |  |  | 
CNC1(c2ccc(C)cc2)CCCCC1=O (racemic) [Compound 119rac, 2-(methylamino)-2-(p-tolyl)cyclohexan-1-one] | 16.7 | 48.1 | 5 | 75.5 | 18.4 | 42 | 3.3 | 417 | 10.3 | > 145 | < 9.6 |  |  |  |  |  |  |  | 
CN[C@]1(c2ccccc2C)CCCCC1=O [Compound 38S, (S)-2-(methylamino)-2-(o-tolyl)cyclohexan-1-one] | 0.24 | -11.2 | 2.7 |  |  | 39.7 |  |  | 8.3 |  |  |  |  |  |  | 22.4 | 31 | 110 | 6
O=C1CCCC[C@@]1(NCCF)c1ccccc1 [Compound 86R, (R)-2-((2-fluoroethyl)amino)-2-phenylcyclohexan-1-one] | 7.1 | -8.9 | 11.4 |  |  | 7.1 |  |  | 13.6 |  |  |  |  |  |  | 6.2 | 113 | 55.8 | 12
O=C1CCCC[C@]1(NCCF)c1ccccc1 [Compound 86S, (S)-2-((2-fluoroethyl)amino)-2-phenylcyclohexan-1-one] | 1.3 | -5.5 | 12.2 |  |  | 14.1 |  |  | 20.8 |  |  |  |  |  |  | 8.5 | 82 | 61.9 | 11
CN[C@@]1(c2ccccc2C)CCCCC1=O [Compound 38R, (R)-2-(methylamino)-2-(o-tolyl)cyclohexan-1-one] | 0.74 | 2.9 | 20.3 |  |  | 41.5 |  |  | -2.2 |  |  |  |  |  |  | 30 | 23 | 111 | 6
O=C1CCCC[C@@]1(NCCO)c1ccccc1 [Compound 30R, (R)-2-((2-hydroxyethyl)amino)-2-phenylcyclohexan-1-one] | > 23 | 16.3 | 3.5 |  |  | 1.2 |  |  | 8.5 |  |  |  |  |  |  | 6.5 | 106 | 23 | 30
O=C1CCCC[C@]1(NCCO)c1ccccc1 [Compound 30S, (S)-2-((2-hydroxyethyl)amino)-2-phenylcyclohexan-1-one] | 23 | 23.2 | 22.3 |  |  | 51.9 |  |  | 18.7 |  |  |  |  |  |  | 4.3 | 162 | 11.4 | 61
